Data taken from patent US11278518B2, “Methods of treatment using 4-methylumbelliferone and derivatives thereof” (The Board of Trustees of the Leland Stanford Junior …, priority 2017, dated 2022).
Entries after “also recorded” stand apart in the source; their conditions may differ. Values belong to the compound of their own block, whether it stands above or below them.

Experiments:
DORmO mice = assay: Onset of diabetes in DORmO mice; format: in vivo
Text: In proof-of-principle studies, 12 candidate esters of 4-MU and 4 candidate esters of 4-MUG were generated and the conversion of these compounds into 4-MU in buffer containing bovin serum was examined. […] Compounds A and B were individually administered to 8 week old DORmO mice. Compound B, butyl-4-MUG, delayed diabetes onset by one month when compared to Compound A. In contrast, mice fed Compound A, ethyl-4-MUG, developed diabetes at 12 weeks of age, at the same time as untreated DORmO mice. […] Briefly, to determine that HA accumulates in the pancreatic islets and creates a permissive environment for autoimmune attacks during autoimmune diabetes disease progression, the DORmO double transgenic mouse model of autoimmune diabetes was used. DORmO mice predictably develop autoimmune diabetes because they are bred to have both a target antigen on their insulin producing beta-cells as well as an immune system that specifically recognizes that antigen. DORmO mice are the result of a cross between RIPmOVA mice (a strain that carries a gene specific for hen egg ovalbumin (OVA) that is only expressed on beta-cells, emulating the auto-antigen) and DO11.10 mice (a strain that carries a T-cell receptor transgene specific for OVA, emulating auto-reactive CD4+ T cells). DORmO mice spontaneously develop autoimmune insulitis starting at four weeks of age and all animals become diabetic (hyperglycemia >200 mg/dl) by 20 weeks of age (Wesley, J. D., et al., J. Immunol. 185, 4760-4768 (2010). Beginning at four weeks of age, mice were weighed weekly as well as bled via the tail vein for the determination of their blood glucose level using a Contour blood glucose meter and blood glucose monitoring strips (Bayer Healthcare). When two consecutive blood glucose readings of 250 mg/dL were recorded, animals were considered diabetic. When two consecutive blood glucose readings of 300 mg/dL were recorded, animals were euthanized. For the in vivo part the oral delivery in the drinking water was the same as for 4-MUG. […]

HA synthesis = assay: Hyaluronan (HA) ELISA of B16F10 cell cultures, inhibition of HA synthesis; format: cell-based, murine; conditions: cells cultured 24-72 hours, HA in ELISA-like assay, normalized
Experimental: B16F10 is a murine melanoma cell line. […] The cells were cultured at 37° C. temperature and an atmosphere of 95% air and 5% carbon dioxide. Cells were cultured in DMEM plus 10% FBS. For the 4-MUG ester experiments, cells were seeded in 48-well plates, at a density of 10,000 cells per well and cultured for 24-72 hours. 4-MU, 4-MUG and the 4-MUG esters were diluted 1:1000 from their stock concentration and added to the cell medium in their final μM concentrations. For the analysis, the cells and the cell supernatant were collected at the end of each experiment and stored at −20° C. until further use. 48-well plates from previous experiments were thawed and 200 μL cell lysis buffer was added to each well. Cells were incubated for 15 minutes at room temperature. The whole lysate was transferred into a 96-well v-bottom plate and centrifuged at 3500 g for 20 minutes at 4° C. After spinning 25 μL from each well was transferred into a flat-bottom 96-well plate and stored until further use. Cell lysis buffer contains Tris-HCl, EDTA, SDS, MgCl2 and Super Nucleasis®. Protein measurement was performed by using the Pierce BCA Protein Assay Kit® (Thermo Scientific) according to the manufacturer instructions. The BCA Protein assay is based on bicinchoninic acid (BCA) for the colorimetric detection and quantitation of total protein. This method combines a biuret reaction (reduction of Cu2+ to Cu1+ by protein in an alkaline medium) with a highly and selective colorimetric detection of the cuprous cation (Cu1+) with the help of bicinchoninic acid. A purple-colored reaction product is formed by the chelation of two BCA molecules with one cuprous ion. This complex has a strong absorbance at 562 nm. The identification of HA in the samples is achieved by utilizing a highly specific HA binding protein (HABP) probe that interacts with HA. […] The HA concentration in the tissue is determined by using an ELISA-like assay. […] The plate was read at 405 nm and the concentrations were calculated according to the standards.

[1] = Serum drug concentration in mice by HPLC-MS; format: in vivo; conditions: 4-MUG in drinking water at 5%, 0.325 mg/mouse/day
Experimental: The 4-MU (Alfa Aesar) was pressed into the mouse chow by TestDiet® and irradiated before shipment. This chow formulation delivered 250 mg/mouse/day, yielding a serum drug concentration of 640.3±17.2 nmol/L in mice, as measured by HPLC-MS. 4-MUG ([…]) was distributed in the drinking water of the mice at a 5% concentration which should deliver 0.325 mg/mouse/day, yielding a serum drug concentration of 357.1±72.6 ng/mL in mice, as measured by HPLC-MS. Mice were initiated on 4-MU and 4-MUG at five, eight or twelve weeks of age, unless otherwise noted, and were maintained on this diet until they were euthanized, unless otherwise noted. For analysis of Foxp3+ regulatory T cell numbers in naïve mice, mice were treated daily with 0.5 mg of 4-MU or 1.0 mg 4-MUG in 200 μl 0.08% carboxymethylcellulose in saline by intraperitoneal (i.p.) injection.

[2] = system: FoxP3+ regulatory T-cells; assay: Induction of FoxP3+ regulatory T-cells in vivo; conditions: mice
Experimental: The 4-MU (Alfa Aesar) was pressed into the mouse chow by TestDiet® and irradiated before shipment. This chow formulation delivered 250 mg/mouse/day, yielding a serum drug concentration of 640.3±17.2 nmol/L in mice, as measured by HPLC-MS. 4-MUG (ChemImpex) was distributed in the drinking water of the mice at a 5% concentration which should deliver 0.325 mg/mouse/day, yielding a serum drug concentration of 357.1±72.6 ng/mL in mice, as measured by HPLC-MS. Mice were initiated on 4-MU and 4-MUG at five, eight or twelve weeks of age, unless otherwise noted, and were maintained on this diet until they were euthanized, unless otherwise noted. For analysis of Foxp3+ regulatory T cell numbers in naïve mice, mice were treated daily with 0.5 mg of 4-MU or 1.0 mg 4-MUG in 200 μl 0.08% carboxymethylcellulose in saline by intraperitoneal (i.p.) injection.

[3] = after 6 months of treatment; cited from earlier work
ApoE-deficient mice = conditions: 4-MU treatment, high-fat diet; cited from earlier work
[4] = in vivo, cited from earlier work
EAE = conditions: 4-MU treatment; cited from earlier work
[5] = system: DORmO and NOD mouse models; conditions: 4-MU treatment; cited from earlier work
obese, diabetic mice = conditions: 4-MU treatment; cited from earlier work
[6] = system: collagen-induced arthritis model; conditions: 4-MU treatment; cited from earlier work
[7] = system: Biliary Duct Ligation (BDL) model; conditions: 4-MU; cited from earlier work
acute lung injury = conditions: 4-MU treatment; cited from earlier work

Structure (SMILES): CCCCOC(=O)C1O[C@@H](Oc2ccc3c(C)cc(=O)oc3c2)C(O)[C@H](O)[C@@H]1O (stereo partly drawn) [Compound B]
onset of diabetes (DORmO mice; at 1/100th the dose of 4-MU): delays the onset of diabetes | inhibition of HA synthesis (HA synthesis): best inhibited HA synthesis in vitro

serum drug concentration [1]: 357.1 ± 72.6 ng/mL
Structure (SMILES): Cc1cc(=O)oc2cc(O[C@@H]3O[C@H](C(=O)O)[C@@H](O)[C@H](O)[C@H]3O)ccc12 [Compound 4-MUG, 4-methylumbelliferone glucuronide]
inhibition of HA synthesis (HA synthesis): inhibits HA synthesis by human cell lines as well as 4-MU; also recorded: inhibits HA synthesis as effectively as 4-MU | fraction of Foxp3+ regulatory T-cells (induction) [2]: also has this property in vivo; also recorded: does increase; also recorded: increases | numbers of CD3+ T-cells [2]: does not increase | numbers of CD4+ T-cells [2]: does not increase | numbers of CD25+ T-cells [2]: does not increase

Structure (SMILES): C[C@H](CCC(=O)O)[C@H]1CC[C@H]2[C@@H]3[C@@H](O)C[C@@H]4C[C@H](O)CC[C@]4(C)[C@H]3CC[C@]12C [UDCA, ursodeoxycholic acid]
bile concentration of UDCA [3]: up to 70%

Structure (SMILES): Cc1cc(=O)oc2cc(O)ccc12 [Compound 4-MU, 4-methylumbelliferone]
atherosclerosis (ApoE-deficient mice): worse atherosclerosis | bioavailability ([4]; first-pass glucuronidation): 2-3% | extraction by the liver [4]: ≤ 97% | EAE disease (EAE): prevent and treat disease; also recorded: limit the progression | progression of autoimmune diabetes [5]: limit the progression | protection from diabetes (DORmO mice; 0.65% 4-MU (approximately 10x less)): only partially protective | glycemia (obese, diabetic mice): restores normoglycemia | disease scores [6]: improved disease scores | fibrosis [7]: reduce fibrosis | lung injury (acute lung injury): decreased or prevented lung injury

Structure (SMILES): CCOC(=O)C1O[C@@H](Oc2ccc3c(C)cc(=O)oc3c2)C(O)[C@H](O)[C@@H]1O (stereo partly drawn) [Compound A, 4-methylumbelliferyl β-D-glucuronide ethyl ester]
age at which mice developed diabetes (DORmO mice; 8 week old DORmO mice, 0.05% in drinking water): 12 weeks | inhibition of HA synthesis (HA synthesis): best inhibited HA synthesis in vitro
